Experimental data published in publication PMC7127030 (Bioorganic & Medicinal Chemistry Letters, 2009).

What was measured:
[1] = target: T1, SCV Hel duplex DNA-unwinding activity (Severe acute respiratory syndrome coronavirus, UniProt P0C6X7); type: biochemical, SARS coronavirus
[2] = target: T1, SCV Hel duplex DNA-unwinding activity; conditions: read-out: IC50 SCV Hel duplex DNA-unwinding; cited from earlier work

SMILES	inhibition of helicase duplex DNA-unwinding activity [1]	IC50 [2] [nM]
O=C(O)/C(O)=C/C(=O)c1ccc(OCc2ccc(Cl)cc2)cc1 [Compound 2]	neither 2 nor 3 showed inhibition	–
O=C(O)/C(O)=C/C(=O)c1cccc(OCc2ccccc2)c1 [Compound 3]	neither 2 nor 3 showed inhibition	–
COc1cc(C23OC4(O)CC(O)(CC(O)(C4)O2)O3)ccc1O [vanillinbananin]	–	2700
